Where a name gives a salt, the structure may show the parent alone.

Two compounds from patent US8354426B2, “Naphthyridine derivative monohydrate and method for producing the same” (Toyama Chemical Co., Ltd., priority 2007, dated 2013) can be followed below.

The nature of one data set: Hygroscopicity test. As to conditions: stored three weeks, room temperature, relative humidity 97%. It is filed as physicochemical. From the text: The compound of the present invention and the comparative compound were stored for three weeks under the conditions of room temperature and the relative humidity of 97%. […] On the other hand, the comparative compound had deliquesced.

The next data set concerns E. coli NIHJ. The data set can be described thus: Susceptibility test (MIC, microtiter broth dilution). It is filed as cell-based. To be noted: Escherichia coli, CAMHB, overnight at 35° C. How it is done:
(§1) The compound of the present invention was dissolved in dimethyl sulfoxide and measured for the antibacterial activity (MIC) by a microtiter broth dilution method recommended by Japanese Society of Chemotherapy.
(§2) Staphylococcus aureus (S. aureus Smith, FDA209P, F-3095), Enterococcus faecalis (E. faecalis D-2648) and Escherichia coli (E. coli NIHJ) were used as the bacteria.
(§3) The bacterial cells, grown overnight on a Mueller-Hinton agar: MHA plate at 35° C., were suspended in a sterilized physiological saline so as to be a 0.5 McFarland equivalent standard. The cell suspension was diluted ten-fold to prepare an inoculum. Approximately 0.005 mL of the inoculum was inoculated into a cation-adjusted Mueller-Hinton broth (CAMHB), 100 μL/well containing the test substance and allowed to grow overnight at 35° C. The lowest concentration of the test substance at which no bacterial growth was observed by the naked eye was determined as MIC.
Background: Broth dilution looks for growth in wells or tubes with falling amounts of substance.

The test system of another data set is E. faecalis D-2648. Described as above. It is filed as cell-based. To be noted: Enterococcus faecalis, D2648. Here is the method: as §1, §2, §3
The test system of a further data set is S. aureus F-3095. The data set is described as above. It is filed as cell-based. As to conditions: Staphylococcus aureus, F3095. How it is done: as §1, §2, §3
For the next data set, the system named is S. aureus FDA209P. The data set is described as above. As to conditions: Staphylococcus aureus, CAMHB, overnight at 35° C. It is filed as cell-based. How it is done: as §1, §2, §3
Another data set concerns S. aureus Smith. Described as above. It is filed as cell-based. To be noted: Staphylococcus aureus, CAMHB, overnight at 35° C. Here is the method:
as §1, §2, §3

The nature of data set [1]: Solubility in phosphate buffer solution. It is filed as physicochemical. To be noted: aqueous buffer, thermodynamic from solid; 0.2 mol/L phosphate buffer solution (pH 6.5), 25° C., shaken 48 hours.

For `O=c1ccc2ncc(F)cc2n1CCN1CCC(NCc2cc3c(cn2)OCCO3)CC1` [Comparative Example 1, 1-(2-(4-((2,3-dihydro(1,4)dioxino(2,3-c)pyridin-7-ylmethyl)amino)piperidin-1-yl)ethyl)-7-fluoro-1,5-naphthyridin-2(1H)-one trihydrochloride, reference compound], the “Appearance after storage (hygroscopicity / deliquescence)” value in “Hygroscopicity test” (trihydrochloride) is listed as “deliquesced”.

Turning to `O=c1ccc2ncc(F)cc2n1CCN1CCC(NCc2cc3c(cn2)OCCO3)CC1` [Example 16, 1-(2-(4-((2,3-dihydro(1,4)dioxino(2,3-c)pyridin-7-ylmethyl)amino)piperidin-1-yl)ethyl)-7-fluoro-1,5-naphthyridin-2(1H)-one monohydrate], the MIC (commonly the least concentration at which growth counts as inhibited) against E. coli NIHJ is 0.125 µg/mL; with E. faecalis D-2648, 0.25 µg/mL; in the data set on S. aureus F-3095, 0.0313 µg/mL; against S. aureus FDA209P, 0.0313 µg/mL; in the data set with S. aureus Smith, 0.0625 µg/mL. For the same compound, the “Appearance after storage (hygroscopicity / deliquescence)” value in “Hygroscopicity test” (monohydrate) was “powder with no apparent change”. Also, the solubility (usually how much of the substance goes into solution per volume) at 48 h in data set [1] is 21.2 mg/mL.
